{"source": "paper PMC8472965", "about": "“BmK86-P1, a New Degradation Peptide with Desirable Thermostability and Kv1.2 Channel-Specific Activity from Traditional Chinese Scorpion Medicinal Material” (Toxins, 2021)", "assay_type_in_all_cases": "cell-based", "key": {"hKv3.2 channel": {"biological_target": "T1, hKv3.2 channel (Homo sapiens, UniProt Q96PR1)", "T1 construct": "expressed in transfected cells; host or cells: HEK293T", "T1 sequence (Q96PR1 1-638)": "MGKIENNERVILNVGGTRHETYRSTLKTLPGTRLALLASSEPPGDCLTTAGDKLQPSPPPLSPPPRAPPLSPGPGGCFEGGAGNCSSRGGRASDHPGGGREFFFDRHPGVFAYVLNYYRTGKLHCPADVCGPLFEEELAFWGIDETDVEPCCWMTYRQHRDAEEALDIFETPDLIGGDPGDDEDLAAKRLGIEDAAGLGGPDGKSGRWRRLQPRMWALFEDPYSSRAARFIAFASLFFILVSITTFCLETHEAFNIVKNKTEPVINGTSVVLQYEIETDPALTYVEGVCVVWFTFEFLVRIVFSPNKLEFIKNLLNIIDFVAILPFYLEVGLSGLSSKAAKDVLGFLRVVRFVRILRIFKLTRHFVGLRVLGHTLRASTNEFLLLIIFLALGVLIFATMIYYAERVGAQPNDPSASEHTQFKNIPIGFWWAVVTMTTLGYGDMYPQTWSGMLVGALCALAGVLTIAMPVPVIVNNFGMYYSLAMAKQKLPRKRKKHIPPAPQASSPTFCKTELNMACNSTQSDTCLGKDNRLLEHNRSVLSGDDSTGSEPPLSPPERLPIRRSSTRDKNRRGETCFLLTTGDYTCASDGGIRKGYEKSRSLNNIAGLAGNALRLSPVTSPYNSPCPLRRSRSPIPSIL", "test": "Whole-cell patch clamp, hKv3.2 channel overexpressed in HEK293T cells", "conditions": "1 μM peptide, mean ± S.E., n ≥ 3, SEM", "experimental": "(§1) To investigate the electrophysiological activities of BmK86-P1, the whole-cell patch clamp technique was applied to test the effects of BmK86-P1 on multiple potassium channels. The hKv1.1, hKv1.2, hKv1.3, hKv1.6, hKv3.2, mKv4.1, rKv4.2, rKv4.3 and hERG channels were overexpressed in HEK293T cells, then the inhibitory effects of BmK86-P1 at 1 μM on these potassium channels were measured. […] To further investigate the affinity of BmK86-P1 inhibiting the hKv1.2 channel, a dose-dependent study was performed by examining the inhibitory effects of different concentrations of BmK86-P1.\n(§2) All potassium channel expression vectors were given by others or constructed by ourselves. HEK293T cells were cultured in Dulbecco’s modified Eagle medium (Gibco, Pittsburgh, PA, USA) with 10% fetal bovine serum and penicillin/streptomycin (100 units/mL) in a 5% CO2 incubator at 37 °C. […] The potassium currents were recorded after transfection for 1 to 3 days.\n(§3) The channel currents were measured and recorded by whole-cell patch clamp technology according to previously published references. […] The channel currents were recorded at room temperature (~25 °C) using an EPC 10 patch clamp amplifier. […]\n(§4) The ClampFit (Molecular Devices, Sunnyvale, CA, USA) and SigmaPlot software ([…], Chicago, IL, USA) were used to analyze the recorded data. […]"}, "hKv1.1 channel": {"biological_target": "T2, hKv1.1 channel (Homo sapiens, UniProt Q09470)", "T2 construct": "expressed in transfected cells; host or cells: HEK293T", "test": "Whole-cell patch clamp, hKv1.1 channel overexpressed in HEK293T cells", "conditions": "mean ± S.E., n ≥ 3, SEM", "experimental": "as §1, §2, §3, §4"}, "mKv4.1 channel": {"biological_target": "T3, mKv4.1 channel (Mus musculus, UniProt Q03719)", "T3 construct": "expressed in transfected cells; host or cells: HEK293T", "T3 sequence (Q03719 1-651)": "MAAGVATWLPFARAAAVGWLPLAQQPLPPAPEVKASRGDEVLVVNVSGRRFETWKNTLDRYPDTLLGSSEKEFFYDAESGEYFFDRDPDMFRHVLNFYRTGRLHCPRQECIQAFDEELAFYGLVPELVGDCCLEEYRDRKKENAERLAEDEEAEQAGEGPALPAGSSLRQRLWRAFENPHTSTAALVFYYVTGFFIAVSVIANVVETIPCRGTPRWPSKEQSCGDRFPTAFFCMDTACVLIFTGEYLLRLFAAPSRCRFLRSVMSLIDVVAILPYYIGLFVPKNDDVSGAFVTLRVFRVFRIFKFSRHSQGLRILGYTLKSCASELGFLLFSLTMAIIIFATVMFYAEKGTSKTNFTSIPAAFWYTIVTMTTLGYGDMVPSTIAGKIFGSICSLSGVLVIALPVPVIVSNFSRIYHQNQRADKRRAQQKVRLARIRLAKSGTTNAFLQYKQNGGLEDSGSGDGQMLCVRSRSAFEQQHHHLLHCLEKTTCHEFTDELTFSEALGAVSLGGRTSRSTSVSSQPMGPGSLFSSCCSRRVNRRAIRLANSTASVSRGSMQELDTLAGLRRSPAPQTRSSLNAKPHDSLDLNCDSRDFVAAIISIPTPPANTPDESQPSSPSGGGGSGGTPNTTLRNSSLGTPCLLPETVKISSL", "test": "Whole-cell patch clamp, mKv4.1 channel overexpressed in HEK293T cells", "conditions": "1 μM peptide, mean ± S.E., n ≥ 3, SEM", "experimental": "as §1, §2, §3, §4"}, "[1]": {"biological_target": "T4, hKv1.2-M1 chimeric channel (Homo sapiens, UniProt P16389, D352E/P359S/Q357H/R354A/T383V/V381Y)", "T4 construct": "expressed in transfected cells; host or cells: HEK293T", "T4 sequence (P16389 whole entry D352E/R354A/Q357H/P359S/V381Y/T383V)": "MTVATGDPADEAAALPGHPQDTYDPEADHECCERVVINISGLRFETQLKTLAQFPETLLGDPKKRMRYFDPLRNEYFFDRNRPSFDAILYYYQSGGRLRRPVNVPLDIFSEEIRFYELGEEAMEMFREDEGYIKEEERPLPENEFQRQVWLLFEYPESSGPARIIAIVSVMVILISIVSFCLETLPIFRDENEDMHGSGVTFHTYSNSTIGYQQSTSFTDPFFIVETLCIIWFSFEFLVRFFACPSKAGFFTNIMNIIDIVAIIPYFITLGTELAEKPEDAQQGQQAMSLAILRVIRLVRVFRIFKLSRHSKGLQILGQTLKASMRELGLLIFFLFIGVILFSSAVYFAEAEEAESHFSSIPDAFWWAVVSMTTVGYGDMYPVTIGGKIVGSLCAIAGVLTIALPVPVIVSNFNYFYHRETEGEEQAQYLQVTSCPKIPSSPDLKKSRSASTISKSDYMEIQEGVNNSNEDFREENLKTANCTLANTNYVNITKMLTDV", "test": "Whole-cell patch clamp, chimeric channel hKv1.2-M1 (S5-S6 linker of hKv1.2 replaced by that of hKv1.1)", "conditions": "100 nM peptide, HEK293T, mean ± S.E., n ≥ 3, SEM", "experimental": "The binding interface of potassium channels for scorpion toxins is the pore region, which includes the turret and filter regions. We first investigated whether BmK86-P1 peptide binds to the pore region of the hKv1.2 channel.\n(§5) All potassium channel expression vectors were given by others or constructed by ourselves. HEK293T cells were cultured in Dulbecco’s modified Eagle medium (Gibco, Pittsburgh, PA, USA) with 10% fetal bovine serum and penicillin/streptomycin (100 units/mL) in a 5% CO2 incubator at 37 °C. Potassium channel expression vectors and pEGFP-N1 were co-transfected into HEK293T cells using TurboFect in vitro Transfection Reagent (Thermo Scientific, Waltham, MA, USA) according to the manufacturer’s instructions. The potassium currents were recorded after transfection for 1 to 3 days.\nThe channel currents were measured and recorded by whole-cell patch clamp technology according to previously published references. The internal patch pipette solution and the bath solution were prepared as previously described. All the test peptides were dissolved into bath solution supplemented with 0.01% BSA. An MPS-2 multichannel microperfusion system (INBIO Inc., Wuhan, China) was applied to change the external recording bath solution. […] The channel currents were recorded at room temperature (~25 °C) using an EPC 10 patch clamp amplifier. […]"}, "hKv1.2-V381Y": {"biological_target": "T5, hKv1.2-V381Y (Homo sapiens, UniProt P16389, V381Y)", "T5 construct": "expressed in transfected cells; host or cells: HEK293T", "T5 sequence (P16389 whole entry V381Y)": "as the sequence (P16389 whole entry D352E/R354A/Q357H/P359S/V381Y/T383V) above, with E352D, A354R, H357Q, S359P, V383T counted along it", "test": "Whole-cell patch clamp, hKv1.2 channel mutant V381Y", "conditions": "100 nM peptide, HEK293T, mean ± S.E., n ≥ 3, SEM", "experimental": "To determine the functional sites of the hKv1.2 channel responsible for the selectivity of BmK86-P1, six hKv1.2 mutants were obtained based on sequence differences between the pore regions of the hKv1.2 and hKv1.1 channels (Figure 4A). Then, the activities of 100 nM BmK86-P1 on these six mutant channels were tested. […] The other three mutant channels (hKv1.2-D352E, hKv1.2-R354A and hKv1.2-P359S) still kept similar sensitivities toward BmK86-P1 compared with the wild-type hKv1.2 channel (Figure 4H,I,K,N).\nas §5, §3"}}, "note": "Positions of bridges follow the written chain, without caps; N, C: chain ends. Residues, ends and D or L forms follow the SMILES beside them.", "data": [{"compound": "CC[C@H](C)[C@@H]1NC(=O)[C@@H]2CSSC[C@H](NC(=O)[C@H](C)N)C(=O)N[C@@H](CO)C(=O)N[C@@H](CCCCN)C(=O)N3CCC[C@H]3C(=O)N[C@H]3CSSC[C@H](NC(=O)[C@H](CCCNC(=N)N)NC(=O)CNC(=O)[C@H](CC(N)=O)NC1=O)C(=O)N[C@@H](Cc1c[nH]cn1)C(=O)N[C@H](C(=O)N[C@@H](Cc1ccc(O)cc1)C(=O)N[C@@H](Cc1ccc(O)cc1)C(=O)O)CSSC[C@H](NC(=O)[C@H](Cc1ccc(O)cc1)NC(=O)[C@H](CCCCN)NC(=O)[C@H](CCCNC(=N)N)NC3=O)C(=O)N[C@@H]([C@@H](C)CC)C(=O)N[C@@H](CC(=O)O)C(=O)N[C@@H](CCCCN)C(=O)NCC(=O)N[C@@H](C)C(=O)N[C@@H](CCCNC(=N)N)C(=O)N[C@@H](CC(N)=O)C(=O)NCC(=O)N[C@@H](CCCCN)C(=O)N2", "note": "[BmK86-P1] (H-ACSKPCRKYCIDKGARNGKCINGRCHCYY-OH; disulfide 2-20, 6-25, 10-27 (inferred); N-terminus and C-terminus assumed)", "values": [{"measurement": "inhibition of hKv3.2 channel currents", "setting": "hKv3.2 channel", "result": "3.8 ± 0.7", "unit": "%"}, {"measurement": "inhibition of hKv1.1 channel currents", "setting": "hKv1.1 channel; 100 nM peptide", "result": "0.7 ± 0.1", "unit": "%"}, {"measurement": "inhibition of hKv1.1 channel currents", "setting": "hKv1.1 channel; 1 μM peptide, room temperature (~25 °C)", "result": "4.4 ± 2.6", "unit": "%"}, {"measurement": "inhibition of Kv4.1 channel currents", "setting": "mKv4.1 channel", "result": "3.4 ± 1.1", "unit": "%"}, {"measurement": "inhibition of hKv1.2-M1 chimeric channel currents", "setting": "[1]", "result": "1.0 ± 0.2", "unit": "%"}, {"measurement": "inhibition of hKv1.2-V381Y channel currents", "setting": "hKv1.2-V381Y", "result": "1.6 ± 0.1", "unit": "%"}]}]}
